Results as given in ChEMBL document CHEMBL2074172, “Possible involvement of multiple P-glycoprotein-mediated efflux systems in the transport of verapamil and other organic cations across rat intestine” (Pharm Res, 1995).

Target: Multidrug resistance protein 1a (Rattus norvegicus) (UniProt Q6PSM0)
Assay: TP_TRANSPORTER: serosal to mucosal transport in SD rat intestinal segment
Assay type: functional
Conditions: Sprague-Dawley, Intestine

Multidrug resistance protein 1a (Rattus norvegicus), sequence (Q6PSM0 as listed by the source): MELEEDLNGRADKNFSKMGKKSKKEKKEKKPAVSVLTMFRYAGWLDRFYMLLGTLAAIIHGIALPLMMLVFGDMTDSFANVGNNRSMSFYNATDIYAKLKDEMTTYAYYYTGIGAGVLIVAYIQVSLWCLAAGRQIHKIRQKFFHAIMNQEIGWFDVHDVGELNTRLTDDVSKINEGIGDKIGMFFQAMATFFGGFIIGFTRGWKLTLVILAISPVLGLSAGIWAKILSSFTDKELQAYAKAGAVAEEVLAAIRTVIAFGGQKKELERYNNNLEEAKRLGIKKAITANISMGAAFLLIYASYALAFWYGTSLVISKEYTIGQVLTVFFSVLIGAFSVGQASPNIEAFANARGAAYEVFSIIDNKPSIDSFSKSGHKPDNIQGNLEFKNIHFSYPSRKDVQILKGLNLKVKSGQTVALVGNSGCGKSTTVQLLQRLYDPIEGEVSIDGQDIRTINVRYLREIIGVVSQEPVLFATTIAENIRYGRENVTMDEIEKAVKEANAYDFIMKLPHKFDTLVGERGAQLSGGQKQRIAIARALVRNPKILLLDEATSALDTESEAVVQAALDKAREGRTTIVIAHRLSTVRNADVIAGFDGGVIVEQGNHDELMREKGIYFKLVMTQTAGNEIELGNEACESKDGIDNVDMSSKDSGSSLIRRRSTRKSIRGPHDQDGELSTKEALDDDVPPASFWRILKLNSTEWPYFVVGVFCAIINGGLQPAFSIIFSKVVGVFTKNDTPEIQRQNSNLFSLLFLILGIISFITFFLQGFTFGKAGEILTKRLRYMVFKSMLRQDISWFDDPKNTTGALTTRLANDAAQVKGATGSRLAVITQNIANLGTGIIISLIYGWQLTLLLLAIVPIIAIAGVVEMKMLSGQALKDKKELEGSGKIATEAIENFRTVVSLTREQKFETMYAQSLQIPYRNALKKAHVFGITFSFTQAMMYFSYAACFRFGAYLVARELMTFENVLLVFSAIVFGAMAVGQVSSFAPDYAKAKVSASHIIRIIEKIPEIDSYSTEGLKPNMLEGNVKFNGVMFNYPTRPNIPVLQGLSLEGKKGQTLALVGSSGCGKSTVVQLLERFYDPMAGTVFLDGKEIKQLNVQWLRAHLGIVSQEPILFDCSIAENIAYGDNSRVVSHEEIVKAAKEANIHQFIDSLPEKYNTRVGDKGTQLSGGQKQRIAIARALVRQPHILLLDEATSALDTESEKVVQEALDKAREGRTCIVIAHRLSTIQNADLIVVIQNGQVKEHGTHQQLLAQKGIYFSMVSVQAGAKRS

Structure (SMILES)	Activity
COc1ccc(CCN(C)CCCC(C#N)(c2ccc(OC)c(OC)c2)C(C)C)cc1OC (configuration not stated)	substrate [+]
CC(C)[N+](C)(CCOC(=O)C1c2ccccc2Oc2ccccc21)C(C)C	substrate [+]
